{
  "source": "paper PMC11137019",
  "about": "“G protein-specific mechanisms in the serotonin 5-HT2A receptor regulate psychosis-related effects and memory deficits” (Nature Communications, 2024)",
  "target": "T1, 5-HT2AR (CHO-5-HT2A cell membranes) (Homo sapiens, UniProt P28223)",
  "T1 construct": "gene HTR2A; membranes from CHO-5-HT2A cell line prepared in the authors' laboratory",
  "T1 sequence (P28223 whole entry)": "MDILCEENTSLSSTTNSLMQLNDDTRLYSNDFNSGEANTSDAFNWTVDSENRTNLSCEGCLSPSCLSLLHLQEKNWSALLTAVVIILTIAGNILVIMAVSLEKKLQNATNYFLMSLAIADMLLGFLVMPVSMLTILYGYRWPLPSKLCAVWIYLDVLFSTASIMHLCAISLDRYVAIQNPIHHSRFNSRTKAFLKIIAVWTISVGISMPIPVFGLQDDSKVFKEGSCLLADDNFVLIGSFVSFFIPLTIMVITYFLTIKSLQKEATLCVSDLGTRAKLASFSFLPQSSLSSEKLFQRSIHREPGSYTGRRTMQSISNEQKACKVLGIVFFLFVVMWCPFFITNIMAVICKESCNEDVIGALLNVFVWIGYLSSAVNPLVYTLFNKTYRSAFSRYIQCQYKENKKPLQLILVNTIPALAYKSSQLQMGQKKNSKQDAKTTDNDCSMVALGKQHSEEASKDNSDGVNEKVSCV",
  "assay": "[3H]ketanserin competition binding, CHO-5-HT2A membranes",
  "conditions": "[…] °C, […] min, orthosteric site",
  "note": "Structures can show the parent of a compound that is named as a salt.",
  "data": [
    {"smiles": "NCCc1c[nH]c2ccc(-c3ccc4c(c3)OCCO4)cc12", "note": "[OTV1, 2-[5-(2,3-dihydro-1,4-benzodioxin-6-yl)-1H-indol-3-yl]ethan-1-amine Hydrochloride]", "values": [
      {"measurement": "pKi", "result": "Ligand binding affinities (pKi) are indicated for Nitro-I, Met-I, OTV1 and OTV2"}
    ]}
  ]
}
